The results in this text go back to US11957680B2, “Pyruvate kinase activators for use in treating blood disorders” (Agios Pharmaceuticals, Inc., priority 2017, dated 2024).

The target of one assay is PKR R510Q (Homo sapiens, UniProt P30613, R510Q). Nature of the assay: PKR mutant assay (R510Q), AC50, LDH/NADH-coupled, absorbance at 340 nm. Type of assay: biochemical. The settings on record: for AC50 / PK R510Q AC50: Table 2, enzyme assay; for AC50: read-out: PK R510Q AC50; for EC50: Table 4, AC50, enzyme assay, read-out: PK R510Q. The method, then: (§1) Example 11. PKR Mutant Assay
Sequence of PKR R510Q (P30613 whole entry R510Q): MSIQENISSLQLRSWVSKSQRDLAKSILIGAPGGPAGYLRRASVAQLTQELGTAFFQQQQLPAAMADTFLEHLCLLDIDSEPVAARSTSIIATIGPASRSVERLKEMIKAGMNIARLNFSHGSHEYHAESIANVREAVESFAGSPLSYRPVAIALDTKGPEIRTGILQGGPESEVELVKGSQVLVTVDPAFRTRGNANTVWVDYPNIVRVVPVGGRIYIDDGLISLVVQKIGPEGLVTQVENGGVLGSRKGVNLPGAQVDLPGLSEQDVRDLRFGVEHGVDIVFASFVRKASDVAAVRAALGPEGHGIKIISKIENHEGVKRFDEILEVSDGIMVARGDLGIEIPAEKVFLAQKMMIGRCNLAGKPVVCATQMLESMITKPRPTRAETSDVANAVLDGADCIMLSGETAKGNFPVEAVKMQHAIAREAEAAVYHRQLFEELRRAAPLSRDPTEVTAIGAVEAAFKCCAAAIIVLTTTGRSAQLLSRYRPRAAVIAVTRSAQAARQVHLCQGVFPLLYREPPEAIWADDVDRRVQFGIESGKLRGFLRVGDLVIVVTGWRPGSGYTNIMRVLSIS
(§2) PKR or PKR mutant enzyme solution was diluted into a reaction mix, which contains 1× buffer (100 mM KCl, 50 mM Tris pH 7.5, 5 mM MgCl2) as well as PEP (conc depends on enzyme), 180 μM NADH, 0.5 units LDH, 1 mM DTT, 0.03% BSA; final assay concentrations after 1.11 fold dilution are indicated.
(§3) 2 μL of test compound was added into wells first, and then 180 μL reaction mix was added.
(§4) Reactions mixture with test compound was assembled except for ADP, and plates were stored for 60 minutes at room temperature.
(§5) 20 uL ADP was added to start reaction at room temperature and reaction progress was measured as changes in absorbance at 340 nm wavelength at room temperature.
(§6) Test Compound Preparation:
(§7) Test compound stock was made at 100× concentration in 100% DMSO (10 mM)
(§8) 1 to 3 dilutions were made for 11 points (i.e. 50 μl of first concentration added to 100 μl 100% DMSO to yield 3.33 mM, 50 μl of this added to 100 μl DMSO to yield 1.11 mM, and so forth) • 1 to 100 dilution into assay (2 μl in 200 μl) yielded starting concentration of 100 μM, decreasing 3 fold for 11 points.
(§9) Assay Buffer: 100 mM KCl, 50 mM Tris 7.5, 5 mM MgCl2, 1 mM DTT, 0.03% BSA
(§10) Reaction Mixture: PKR mutant enzyme: 40-400 ng/well; ADP: 0.2-1.65 mM; PEP: 0.1-0.5 mM; NADH: 180 μM; LDH: 0.5 units (Sigma #59023); DTT: 1 mM; BSA: 0.03%.

Another assay concerns the target PKR K410E (Homo sapiens, UniProt P30613, K410E). The experiment in a line: PKR mutant assay (K410E), AC50, LDH/NADH-coupled, absorbance at 340 nm. The format is biochemical. Conditions: for AC50: Table 2, enzyme assay; for EC50: Table 4, AC50, enzyme assay. The method, then: as §1, §2, §3, §4, §5, §6, §7, §8, §9, §10
The target of assay [1] is T1, wild type PKR (Homo sapiens, UniProt P30613). Nature of the assay: Cell based ATP assay in purified red blood cells (Cell-Titer-Glo). On the set-up: endogenous in cells; host or cells: purified red blood cells from healthy volunteers. The settings on record: overnight at 37° C., ATP levels; for AC50 / Cell based ATP assay AC50: Table 2, RBCs. The method, then: Example 16. Red Blood Cell (RBC) Purification
T1 sequence (P30613 whole entry, the tested form may be a part): as the sequence (P30613 whole entry R510Q) above, with Q510R counted along it
Fresh blood drawn from healthy volunteers into K2EDTA tubes was collected. Whole blood was pelleted by spinning at 500 g for 10 minutes. Cut transfusion bag port off of Purecell leukocyte reduction neofilter (Fisher NC0267633) one (1) inch above filter. Attach a 10 ml syringe barrel to the remaining cut tubing attached to neofilter. The plasma layer was removed from the pellet of the whole blood and the pellet was resuspended in 2× volume of phosphate buffered saline (PBS). Transfer 9 ml re-suspended blood cell pellet to prepared 10 ml syringe that is attached to the neofilter. Allow whole blood to gravity flow through filter until all fluid runs through upper tubing into filter disc. Add plunger to the syringe, remove syringe from clamp and invert the filter, then plunge air through the syringe filter system. Using a new 5 ml syringe, remove filtered RBCs from the bag by the syringe port and transfer purified RBCs to a 5 ml snap cap tube that has been incubated on ice. Spin 5 ml snap cap tube at 500 g for 10 minutes at 15 C, aspirate supernatant and resuspend in AGAM (1×PBS, 1% glucose, 170 mg/L adenine, 5.25 g/L mannitol) at a density of 4×10^9 cells/mL.
Example 17. Cell Based ATP Assay
For cell based ATP assays, the compound as described herein was prepared in 100% DMSO as a 10 mM stock. Serial dilutions (1:4) were performed in 96-well V-bottom storage plate and then added 1:100 to 96-well V-bottom plates containing AGAM. RBCs were diluted in AGAM media to a density of 1×10^7 cells/mL before added 90 μL/well to black clear bottom assay plates (final compound concentration at 0.1% DMSO concentration). Assay plates were sealed using aluminum foil seals and incubated overnight at 37° C. in a humidified chamber. ATP levels were read out using Cell-Titer-Glo (Promega).

Assay [2] addresses T1, wild type PKR. The experiment in a line: PKR (wild type) enzyme AC50 assay, LDH/NADH-coupled, absorbance at 340 nm. The format is biochemical. The settings on record: for AC50: Table 2, enzyme assay, read-out: PKR WT AC50; for EC50: read-out: PKR WT. The method, then:
as §1, §2, §3, §4, §5, §6, §7, §8, §9, §10

Sequence of PKR K410E (P30613 whole entry K410E): as the sequence (P30613 whole entry R510Q) above, with K410E, Q510R counted along it

As a reminder, the AC50 is the concentration at which the activity in the assay is half-maximal. On to `COc1cccc(Cn2ncc3c4sc(Cc5ccc(C(F)(F)F)cc5)nc4n(C)c3c2=O)c1` [Compound 41], for which the AC50 on PKR R510Q was below 300 nM; at PKR K410E it was below 300 nM; at wild type PKR [1], at most 1000 nM; at wild type PKR [2], below 300 nM.

Regarding `Cn1c2nc(Cn3ccnc3)sc2c2cnn(Cc3cccc4[nH]ncc34)c(=O)c21` [Compound 277], the EC50 on PKR R510Q was above 800 nM; on PKR K410E, 301 to 800 nM; on wild type PKR [1] (Table 4, AC50, RBCs), above 1000 nM; at wild type PKR [2] (Table 4, AC50, enzyme assay), above 800 nM.

`CCOC(=O)Cn1ncc2c3sc(C)nc3n(C)c2c1=O` [Compound 66]: the “PK R510Q AC50” value at PKR R510Q was “No Fit”. Also, the AC50 at PKR K410E and at wild type PKR [2] was above 800 nM in each case. In addition, at wild type PKR [1], the “Cell based ATP assay AC50” value is “No Fit”.

With `CC(=O)c1cccc(Cn2ncc3c4sc([S+](C)[O-])nc4n(C)c3c2=O)c1` (centres unmarked) [Compound 86], the AC50 was above 800 nM at PKR R510Q, above 800 nM at PKR K410E, above 1000 nM on wild type PKR [1] and below 300 nM on wild type PKR [2].

Consider `Cn1ncc2c(Cn3ncc4c5sc(Cc6cc[nH]n6)nc5n(C)c4c3=O)cccc21` [Compound 201], for which the EC50 on PKR R510Q was below 300 nM; at PKR K410E, below 300 nM; at wild type PKR [1] (Table 4, AC50, RBCs) it was at most 1000 nM; on wild type PKR [2] (Table 4, AC50, enzyme assay), below 300 nM.

Take `Cn1c2nc(C(c3cccc4[nH]ncc34)S(=O)(=O)c3ccccc3)sc2c2cnn(Cc3cccc4[nH]ncc34)c(=O)c21` (centres unmarked) [Compound 133]: the AC50 was above 800 nM at PKR R510Q, above 800 nM on PKR K410E, above 1000 nM on wild type PKR [1] and above 800 nM at wild type PKR [2].

For `Cn1c2nc([C@@H](O)c3cc[nH]n3)sc2c2cnn(Cc3cccc4[nH]ncc34)c(=O)c21` [Compound 304], the EC50 at PKR R510Q is below 300 nM; on PKR K410E, below 300 nM; at wild type PKR [1] (Table 4, AC50, RBCs) it was at most 1000 nM; on wild type PKR [2] (Table 4, AC50, enzyme assay) it was below 300 nM.

As for `Cn1c2nc(Cc3cc[nH]n3)sc2c2cnn(Cc3ccc4scnc4c3)c(=O)c21` [Compound 237], the EC50 was below 300 nM at PKR R510Q; below 300 nM at PKR K410E; at most 1000 nM at wild type PKR [1] (Table 4, AC50, RBCs); below 300 nM at wild type PKR [2] (Table 4, AC50, enzyme assay).

As to `COc1cccc(Cn2ncc3c4sc(OC)nc4n(C)c3c2=O)c1` [Compound 22], the AC50 is below 300 nM on PKR R510Q, below 300 nM at PKR K410E, above 1000 nM at wild type PKR [1] and below 300 nM at wild type PKR [2].

`Cc1nc2c(s1)c1cnn(CO)c(=O)c1n2C` [Compound 21]: the “PK R510Q AC50” value at PKR R510Q was “No Fit”. Besides, the AC50 on PKR K410E and at wild type PKR [2] was above 800 nM each time. In addition, the “Cell based ATP assay AC50” value at wild type PKR [1] is on record as “No Fit”.

Turning to `O=c1c2c(cnn1Cc1ccccc1)c1sc(Cc3cc[nH]n3)nc1n2Cc1ccccc1` [Compound 407], the EC50 on PKR R510Q is below 300 nM; at PKR K410E, above 800 nM. Besides, the “Cell based ATP assay” value on wild type PKR [1] (Table 4, AC50, RBCs) is reported as “No Fit”. Besides, at wild type PKR [2] (Table 4, AC50, enzyme assay), the “PKR WT” value is on record as “No Fit”.

Regarding `Cn1c2nc(C(N)c3ccccc3)sc2c2cnn(Cc3cccc4[nH]ncc34)c(=O)c21` (centres unmarked) [Compound 136], the AC50 at PKR R510Q was below 300 nM; at PKR K410E, below 300 nM; on wild type PKR [1], at most 1000 nM; at wild type PKR [2], below 300 nM.

On to `Cn1c2nc(Cc3csc(CO)n3)sc2c2cnn(Cc3cccc4[nH]ncc34)c(=O)c21` [Compound 168], for which the AC50 at PKR R510Q was below 300 nM; at PKR K410E, below 300 nM; at wild type PKR [1], at most 1000 nM; on wild type PKR [2] it was below 300 nM.

With `Cn1c2nc(Cc3cc[nH]c(=O)c3)sc2c2cnn(Cc3cccc4[nH]ncc34)c(=O)c21` [Compound 200], the EC50 was above 800 nM on PKR R510Q; below 300 nM at PKR K410E; at most 1000 nM at wild type PKR [1] (Table 4, AC50, RBCs); below 300 nM at wild type PKR [2] (Table 4, AC50, enzyme assay).
